Measurements from the SangsterLogP compilation.

Experiment: method code SF-AS/HPLC, from DOI: 10.1039/a908863f

Row | SMILES | logP
1 | C=CC(=O)OCCCOC(=O)C=C | 0.87
2 | C=CC(=O)OCCOCCOC(=O)C=C | 0.79
3 | C=CC(=O)OCC(C)(C)COC(=O)C=C | 2.5
4 | C=CC(=O)OCCCCCCCCCC | 5.46
5 | C=CC(=O)OC(C)COc1ccc(C(C)(C)c2ccc(OCC(C)OC(=O)C=C)cc2)cc1 (stereo not drawn) | 6.1
6 | C=CC(=O)OCCCCCCOC(=O)C=C | 3.08
7 | C=CC(=O)OCC(CC)(COC(=O)C=C)COC(=O)C=C | 2.75
8 | C=CC(=O)OCC(COC(=O)C=C)(COC(=O)C=C)COC(=O)C=C | 2.23
9 | C=CC(=O)OCCOCCOCCOC(=O)C=C | 0.65
10 | C=CC(=O)OCCCCCCCCCCCCCCCCCC | 7.1
11 | C=CC(=O)OCCOCCOCCOCCOC(=O)C=C | 0.47
12 | C=CC(=O)Oc1ccccc1 | 1.94
13 | C=CC(=O)OCCOCCO | -0.3
